Laboratory results as given in patent US20240052109A1, “POLYSILOXANE VINYLIC MONOMERS AND USES THEREOF” (Alcon Inc., priority 2022, published 2024).

Test: Solubility of PDMS vinylic monomer in 1-PrOH:Water mixtures
Assay type: physicochemical
Settings: 50-60 mg sample, stirred at room temperature
Method: The solubility of quaternium ammonium containing PDMS vinylic monomer prepared in Example 2 is evaluated in 1-PrOH:Water mixtures. Typically, 50-60 mg of the sample is combined with a selected solvent system and it is stirred/agitated at room temperature. After few minutes compatibility is evaluated. For comparison, the solubilities of three reference materials are also evaluated. The three reference material are: methacryloxypropyl- and n-butyl-terminated polydimiethylsiloxane (D6, Mn=700-800 g/mol) (Ref. 1); methacryloxypropyl- and n-butyl-terminated polydimiethylsiloxane (D9, Mn=900-1,000 g/mol) (Ref. 2); and methyl- and 2-[4-(chloromethyl)phenyl]ethyl-terminated polydimethylsiloxane (Ref. 3).

| Compound | Solubility (compatibility) in 1-PrOH:Water (1-PrOH:Water 0:100) | Solubility (compatibility) in 1-PrOH:Water (1-PrOH:Water 20:80) | Solubility (compatibility) in 1-PrOH:Water (1-PrOH:Water 40:60) | Solubility (compatibility) in 1-PrOH:Water (1-PrOH:Water 60:40) | Solubility (compatibility) in 1-PrOH:Water (1-PrOH:Water 80:20) | Solubility (compatibility) in 1-PrOH:Water (1-PrOH:Water 100:0) |
| --- | --- | --- | --- | --- | --- | --- |
| methyl- and 2-[4-(chloromethyl)phenyl]ethyl-terminated polydimethylsiloxane [Ref. 3] | Hazy | Hazy | Hazy | Hazy | Clear | Clear |
| C=CC(=O)NCCC[N+](C)(C)Cc1ccc(CC[Si](C)(C)O[Si](C)(C)O[Si](C)(C)O[Si](C)(C)O[Si](C)(C)C)cc1 [Example 2] | Hazy | Hazy | Clear | Clear | Clear | Clear |
| methacryloxypropyl- and n-butyl-terminated polydimiethylsiloxane [Ref. 2] | Hazy | Hazy | Hazy | Hazy | Hazy | Clear |
| methacryloxypropyl- and n-butyl-terminated polydimiethylsiloxane [Ref. 1] | Hazy | Hazy | Hazy | Hazy | Clear | Clear |
